The text below walks through data of patent publication US7169813B2, “4-oxo-fenretinide, administered alone and in combination with fenretinide, as preventive and therapeutic agent for cancer” (Fondazione IRCCS “Istituto Nazionale Dei Tumori”, priority 2004, dated 2007).

One data set has as its system A2780/HPR. Nature of the data set: Growth inhibition (sulforhodamine B assay), single agents and combination. The format is cell-based, human. As to conditions: for Survival (% control cells): single experiments. On the procedure: (§1) The following human ovarian carcinoma cell lines were tested: A2780 was obtained from Dr. R. F. Ozols (National Cancer Institute, Bethesda, Md., USA); IGROV-1 was obtained from Dr. J. Benard (Villejuif, France); OVCA432 was obtained from Dr. R. C. Knapp (Boston, Mass., USA); OAW42 and SKOV-3 were purchased from ATCC (Rockville, Md., USA). A2780/HPR, a 4-HPR— resistant ovarian carcinoma cell line, was obtained in our laboratory by continuous exposure of A2780 cells to increasing concentrations of 4-EPR as previously described (Appierto et al., Br. J. Cancer, 2001, 84:1528–1534; Prinetti et al., J. Biol. Chem., 2003, 278:5574–5583). Briefly, cells surviving 60 transplants in 4-HPR —containing medium (3 transplants at 1 μM, 11 transplants at 2 μM, 8 transplants at 3 μM, and 38 transplants at 5 μM) were cloned by limiting dilution. […] Therefore, A2780/HPR cells were continuously maintained in 5 μM 4-HPR and seeded without 4-HPR in all the experiments performed to test their sensitivity to 4-oxo-4-HPR.
(§2) The following human breast tumor cell lines, obtained from Dr. R. Sutherland (Garvan Institute, Sydney, Australia) were tested: T-47D, BT-20 and MCF-7. The following human neuroblastoma cell lines, purchased from ATCC, were tested: SK-N-BE, SK-N-SH, SK-N-MC, and GI-LI-N. All cell lines were grown in monolayer, in medium containing 10% fetal bovine serum (Invitrogen) in 5% CO2 at 37° C. The medium for A2780, A2780/HPR, IGROV-1, OVCA432, SKOV-3, T-47D, BT-20, MCF-7, GI-LI-N and SK-N-BE cells was RPMI 1640 (Cambrex, Verviers, Belgium) and the medium for OAW42, SK-N-MC and SK-N-SH cells was EMEM (ATCC).
(§3) For the growth inhibition assays, cells were seeded at a density of 3500 cells per well in 96 cluster tissue culture plates, and treated 24 hr after seeding with different concentrations of 4-oxo-4-HPR or 4-HPR. 4-oxo-4-HPR was dissolved in absolute ethanol and 4-HPR (obtained from Dr. J. A. Crowell —NCI Bethesda, Md., USA) was dissolved in Me2SO. […] Control cultures received the same amount of ethanol or Me2SO as the treated cultures. 72 hr after treatment cell number was estimated by using the sulforhodamine B assay according to Monks et al., (J. Natl. Cancer, 1991, 11: 757–766). The survival of treated cells was calculated for the various drug concentrations as percentage of the survival of control cells. The antiproliferative activity of 4-oxo-4-HPR and 4-HPR in each cell line, was tested in three separate experiments and the average values ±SD are reported in FIGS. 2, 3, and 4.
(§4) The antiproliferative effect of the combination of the two drugs, administered at one single dose, was also tested in other ovarian carcinoma cell lines and in breast tumor cell lines. The type of interaction between 4-HPR and 4-oxo-4-HPR was assessed by the method of Drevinko et al., as described in Cancer Biochem. Biophys., 1976, 1:187–195. For this evaluation the drugs were assumed to provide independent effects. The combination index (CI) was calculated as follows: survival fraction (SF) of the combination of 4-HPR+4-oxo-4-HPR divided by (SF 4-HPR×SF 4-oxo-4-HPR). The results for CI are defined as follows: CI=1 indicates an additive effect, CI<1 indicates a supra-additive effect and CI>1 indicates a sub-additive effect.
(Sulforhodamine B stains cellular protein and so reports cell mass.)

For another data set, the system named is IGROV-1. The description is as above. The format is cell-based, human. On the procedure:
as §1, §2, §3, §4

In another data set the test system is OVCA432. Described as above. The format is cell-based, human. Here is the method:
as §1, §2, §3, §4

The test system of another data set is BT-20. The data set is described as above. Format: cell-based, human. On the procedure:
as §2, §3, §4

A further data set relates to MCF-7. Described as above. Format: cell-based, human. The note with it: for IC50: Homo sapiens, read-out: 50% Inhibitory Concentrations (IC50) at 72 h; for Survival (% control cells): single agent 1 μM. Here is the method:
as §2, §3, §4

Another data set deals with plasma retinol levels. The experiment in a line: Effects on plasma retinol in mice. Format: in vivo. As to conditions: mice i.p. 120 mg/kg for 4 days; for Retinol % reduction: plasma, baseline vs 5 h after last treatment, control 22. Here is the method: One of the main side effects of 4-HPR, is diminished dark adaptation or nyctalopia (Formelli et al., FASEB J., 1996, 10:1014–1024) which is caused by a decrease in plasma retinol levels (Formelli et al., Cancer Res., 49:6149–6152). The influence of 4-oxo-4-HPR on plasma retinol levels was assessed in mice and was compared with the effects caused by 4-HPR. Animal studies were approved by the Ethics Committee for Animal Experimentation of Istituto Nazionale Tumori (Milan Italy) and were carried out according to national and international guidelines (Italian Governing Law, Legislative decree 116, Jan. 27, 1992 and UKCCCR guidelines for the welfare of animals in experimental neoplasia. Br. J. Cancer 1988, 58:109–113). Female Swiss nude mice (7–9 weeks old) were supplied by Charles River (Calco, Italy) and kept in laminar air-flow rooms in sterilised cages, with bedding, food and acidified water. 4-HPR was obtained from Dr. J. A. Crowell —NCI Bethesda, Md., USA. 4-oxo-4-HPR and 4-HPR were dissolved in absolute ethanol and then diluted in a sterile 0.9% (w/v) NaCl solution containing 1,65 mg/ml bovine serum albumin (Sigma, St Louis, Mo., USA) at a final ethanol concentration of 10% (v/v). The drug solutions were freshly prepared once a week, protected from light and kept at 4° C. Mice were treated i.p. with 120 mg/kg of 4-oxo-4-HPR or 4-HPR for 4 days. The two drugs were delivered at a volume of 10 ml/kg of body weight. Control mice were treated with the same solvent of 4-oxo-4HPR and 4-HPR. Three mice per group were used. Blood samples, for drug and retinol measurements, were drawn from the retroorbital plexus of anesthetized mice before and 5 hr after the last treatment, collected into heparinized tubes and wrapped in aluminium foil in order to protect them from light. Retinol and drug concentrations in plasma were assayed by HPLC as previously described (Formelli et al., Cancer Res. 1989, 49:6149–6152) and as above reported (see Exemple 1) and are reported in Table 3.

Setting [1] is: IGROV-1; single agent 1 μM; 72 h; single experiments.
Where [2] appears, read: OVCA432; single agent 1 μM; 72 h; single experiments.

The structures appear in SMILES notation. Several values for one entry are separate records, joined by “and”; a condition that tells them apart may be missing. Equal values may be shown once. Read-outs that look alike come from different tables or passages of the source.

On to `CC1=C(/C=C/C(C)=C/C=C/C(C)=C/C(=O)Nc2ccc(O)cc2)C(C)(C)CCC1` [4-HPR, N-(4-hydroxyphenyl)retinamide, reference compound], for which the “Survival (% control cells)” value was 81 % control cells and 89 % control cells with A2780/HPR (A2780/HPR, 4-HPR 5 μM, 72 h); 97 % control cells and 91 % control cells with IGROV-1 (setting [1]); 115 % control cells and 105 % control cells in the data set with OVCA432 (setting [2]); 89 % control cells with BT-20 (BT-20; single agent 1 μM; 72 h); 86 % control cells in the data set on MCF-7 (MCF-7, 72 h). Besides, the IC50 with A2780/HPR (Homo sapiens, A2780/HPR (4-HPR-resistant), 72 h, read-out: 50% Inhibitory Concentrations (IC50) at 72 h) worked out at 8000 nM; in the data set with IGROV-1 (Homo sapiens; IGROV-1; 72 h; read-out: 50% Inhibitory Concentrations (IC50) at 72 h) it was 5000 nM; in the data set with OVCA432 (Homo sapiens; OVCA432; 72 h; read-out: 50% Inhibitory Concentrations (IC50) at 72 h) it was 8000 nM; in the data set on BT-20 (Homo sapiens; BT-20; 72 h; read-out: 50% Inhibitory Concentrations (IC50) at 72 h), 7000 nM; with MCF-7 (MCF7, MCF-7, 72 h), 3000 nM. Also, in the data set with plasma retinol levels, the Retinol % reduction came out at 56%.

For the compound `CC1=C(/C=C/C(C)=C/C=C/C(C)=C/C(=O)Nc2ccc(O)cc2)C(C)(C)CCC1=O` [4-oxo-4-HPR, 4-oxo-N-(4-hydroxyphenyl)retinamide], the “Survival (% control cells)” value in the data set on A2780/HPR (A2780/HPR, 4-oxo-4-HPR 0.3 μM, 72 h) was 96 % control cells and 84 % control cells and 71 % control cells; in the data set on IGROV-1 (setting [1]), 96 % control cells and 76 % control cells; in the data set on OVCA432 (setting [2]) it was 98 % control cells and 102 % control cells; in the data set with BT-20 (BT-20; single agent 1 μM; 72 h), 70 % control cells; in the data set with MCF-7 (MCF-7, 72 h), 56 % control cells. Besides, the “tumor cell survival (FIG. 2), in words” value in the data set on A2780/HPR (A2780/HPR, 72 hr, 0.3 to 10 μM) is on record as “highly effective”. For the same compound, the IC50 in the data set with IGROV-1 (Homo sapiens, IGROV-1, 72 h, read-out: 50% Inhibitory Concentrations (IC50) at 72 h) came to 2000 nM; in the data set with OVCA432 (Homo sapiens, OVCA432, 72 h, read-out: 50% Inhibitory Concentrations (IC50) at 72 h) it was 2500 nM; in the data set with BT-20 (Homo sapiens, BT-20, 72 h, read-out: 50% Inhibitory Concentrations (IC50) at 72 h), 2000 nM; with MCF-7 (MCF7, 72 h) it was 1500 nM. For the same compound, the “tumor cell survival (FIG. 3), compared with 4-HPR, in words” value with BT-20 (BT-20; 72 hr) was “more potent than 4-HPR”; with MCF-7 (MCF-7, 72 hr), “more potent than 4-HPR”. The “reduction of plasma retinol levels, in words” value in the data set with plasma retinol levels is reported as “reduction only slightly higher than observed in control mice”. In the data set on plasma retinol levels, this compound gave a Retinol % reduction of 38%.
